Experiments:
HCC4017 cells = assay: Annexin V apoptosis assay; format: cell-based, human; conditions: 18h, 40h, 64h
Experimental: For cell cycle analysis, cells were washed with PBS, fixed in 70% ethanol for 2 h, washed with PBS and resuspended in staining solution (0.1% Triton X-100, 0.2 mg/ml DNAse-free RNAse A and […]) and incubated at 37C for 15 min. Histograms were acquired on a BD FACSCalibur flow cytometer at UT Southwestern’s core facility. Apoptosis was measured using a FITC Annexin V Apoptosis Detection Kit I (BD Pharmingen) according to manufacturer’s protocol after treating cells with compounds as indicated in Figure legends.

SF-295 = assay: NCI 60 screen, five dose; format: cell-based; conditions: Homo sapiens, CNS Cancer, GI50 = molar concentration, read-out: Log10 GI50 (converted)
U251 = assay: NCI 60 screen, five dose; format: cell-based; conditions: Homo sapiens, U-251, CNS Cancer, GI50 = molar concentration, read-out: Log10 GI50 (converted)
HL-60(TB) = assay: NCI 60 screen, five dose; format: cell-based; conditions: Homo sapiens, Leukemia, GI50 = molar concentration, read-out: Log10 GI50 (converted)
CAKI-1 = assay: NCI 60 screen, five dose; format: cell-based; conditions: Homo sapiens, Renal Cancer, GI50 = molar concentration, read-out: Log10 GI50 (converted)
HCT-116 = assay: NCI 60 screen, five dose; format: cell-based; conditions: Homo sapiens, Colon Cancer, GI50 = molar concentration, read-out: Log10 GI50 (converted)
Leukemia cell lines = assay: NCI 60 screen, five dose; format: cell-based, human; conditions: for GI50: Homo sapiens; for no. cell lines used for the assay/no inhibited by compound: figures in parenthesis
SK-MEL-5 = assay: NCI 60 screen, five dose; format: cell-based; conditions: Homo sapiens, Melanoma, GI50 = molar concentration, read-out: Log10 GI50 (converted)
OVCAR-4 = assay: NCI 60 screen, five dose; format: cell-based; conditions: Homo sapiens, Ovarian Cancer, GI50 = molar concentration, read-out: Log10 GI50 (converted)
A549/ATCC = assay: NCI 60 screen, five dose; format: cell-based; conditions: Homo sapiens, Non-Small Cell Lung Cancer, GI50 = molar concentration, read-out: Log10 GI50 (converted)
CCRF-CEM = assay: NCI 60 screen, five dose; format: cell-based; conditions: Homo sapiens, Leukemia, GI50 = molar concentration, read-out: Log10 GI50 (converted)
ACHN = assay: NCI 60 screen, five dose; format: cell-based; conditions: Homo sapiens, Renal Cancer, GI50 = molar concentration, read-out: Log10 GI50 (converted)
TK-10 = assay: NCI 60 screen, five dose; format: cell-based; conditions: Homo sapiens, Renal Cancer, GI50 = molar concentration, read-out: Log10 GI50 (converted)
OVCAR-5 = assay: NCI 60 screen, five dose; format: cell-based; conditions: Homo sapiens, Ovarian Cancer, GI50 = molar concentration, read-out: Log10 GI50 (converted)
A498 = assay: NCI 60 screen, five dose; format: cell-based; conditions: Homo sapiens, Renal Cancer, GI50 = molar concentration, read-out: Log10 GI50 (converted)
[1] = test system: Prostate Cancer cell lines; assay: NCI 60 screen, five dose; format: cell-based, human; conditions: for GI50: Homo sapiens; for no. cell lines used for the assay/no inhibited by compound: figures in parenthesis
Colon cancer cell lines = assay: NCI 60 screen, five dose; format: cell-based, human; conditions: for GI50: Homo sapiens; for no. cell lines used for the assay/no inhibited by compound: figures in parenthesis
NCI-H522 = assay: NCI 60 screen, five dose; format: cell-based; conditions: Homo sapiens, Non-Small Cell Lung Cancer, GI50 = molar concentration, read-out: Log10 GI50 (converted)
SK-MEL-28 = assay: NCI 60 screen, five dose; format: cell-based; conditions: Homo sapiens, Melanoma, GI50 = molar concentration, read-out: Log10 GI50 (converted)
RPMI-8226 = assay: NCI 60 screen, five dose; format: cell-based; conditions: Homo sapiens, Leukemia, GI50 = molar concentration, read-out: Log10 GI50 (converted)
KM12 = assay: NCI 60 screen, five dose; format: cell-based; conditions: Homo sapiens, Colon Cancer, GI50 = molar concentration, read-out: Log10 GI50 (converted)
SNB-75 = assay: NCI 60 screen, five dose; format: cell-based; conditions: Homo sapiens, CNS Cancer, GI50 = molar concentration, read-out: Log10 GI50 (converted)
HCC-2998 = assay: NCI 60 screen, five dose; format: cell-based; conditions: Homo sapiens, Colon Cancer, GI50 = molar concentration, read-out: Log10 GI50 (converted)
EKVX = assay: NCI 60 screen, five dose; format: cell-based; conditions: Homo sapiens, Non-Small Cell Lung Cancer, GI50 = molar concentration, read-out: Log10 GI50 (converted)
SW-620 = assay: NCI 60 screen, five dose; format: cell-based; conditions: Homo sapiens, Colon Cancer, GI50 = molar concentration, read-out: Log10 GI50 (converted)
SN12C = assay: NCI 60 screen, five dose; format: cell-based; conditions: Homo sapiens, Renal Cancer, GI50 = molar concentration, read-out: Log10 GI50 (converted)
UACC-62 = assay: NCI 60 screen, five dose; format: cell-based; conditions: Homo sapiens, Melanoma, GI50 = molar concentration, read-out: Log10 GI50 (converted)
Melanoma cell lines = assay: NCI 60 screen, five dose; format: cell-based, human; conditions: for GI50: Homo sapiens; for no. cell lines used for the assay/no inhibited by compound: figures in parenthesis
[2] = test system: 60 human tumor cell lines; assay: NCI 60 human tumor cell line screen; format: cell-based; conditions: for GI50: Homo sapiens, 60 cell, read-out: MID (average GI50 across the 60 cell lines); for average growth inhibition: single dose of 10 μm, 60 cell line panel
Text: To evaluate if the antiproliferative activity of the novel hydroxamic acid derived compounds was general across cancer types, selected compounds were submitted for testing in the tissue-specific panel of human tumor cell lines at the National Cancer Institute, Bethesda, USA. This screen utilizes 60 human tumor cell lines, representing leukemia, melanoma and cancers of the lung, colon, brain, ovary, kidney, prostate and breast. This cell line panel offers the advantage of having available microarray gene expression data across the 60 cell lines which can be used to determine the uniqueness of a new lead for which the molecular target(s) might not be known. The antitumor activity is presented for each cell line by three parameters, namely log10 GI50 value (GI50 = molar concentration of the compound that inhibits 50% net cell growth), log10 TG value (TGI = molar concentration of the compound leading to total inhibition of net cell growth), and log10 LC50 value (LC50 = molar concentration of the compound leading to 50% net cell death) accompanied by MID which refers to the average inhibitory value across the 60 cell lines.
In this assay, compounds 9c (NSC 747073) and 9d (NSC 747072) inhibited the proliferation of subsets of leukemia, colon, CNS, melanoma, and prostrate cancer cells to a higher extent than cells from other cancers (Fig 6A and 6B).

DU-145 = assay: NCI 60 screen, five dose; format: cell-based; conditions: Homo sapiens, Prostate Cancer, GI50 = molar concentration, read-out: Log10 GI50 (converted)
SNB-19 = assay: NCI 60 screen, five dose; format: cell-based; conditions: Homo sapiens, CNS Cancer, GI50 = molar concentration, read-out: Log10 GI50 (converted)
NCI-H23 = assay: NCI 60 screen, five dose; format: cell-based; conditions: Homo sapiens, Non-Small Cell Lung Cancer, GI50 = molar concentration, read-out: Log10 GI50 (converted)
M14 = assay: NCI 60 screen, five dose; format: cell-based; conditions: Homo sapiens, Melanoma, GI50 = molar concentration, read-out: Log10 GI50 (converted)
HT29 = assay: NCI 60 screen, five dose; format: cell-based; conditions: Homo sapiens, HT-29, Colon Cancer, GI50 = molar concentration, read-out: Log10 GI50 (converted)
SR = assay: NCI 60 screen, five dose; format: cell-based; conditions: Homo sapiens, Leukemia, GI50 = molar concentration, read-out: Log10 GI50 (converted)

Cn1c(N2CCN(S(=O)(=O)c3ccc(C(=O)NO)cc3)CC2)nc2ccccc21 [Compound 9b, 4-[4-(1-methylbenzimidazol-2-yl)piperazin-1-yl]sulfonylbenzenecarbohydroxamic acid]
Annexin V staining, percent of dead cells (HCC4017 cells): did not show any reproducible significant changes

O=C(NO)c1ccc(S(=O)(=O)N2CCN(c3nc4ccccc4o3)CC2)cc1 [Compound 9c, 4-(4-Benzoxazol-2-yl-piperazin-1-sulfonyl)-N -hydroxy-benzamid]
GI50 (SF-295): 3.09 µM | GI50 (U251): 6.46 µM | GI50 (HL-60(TB)): 5.89 µM | GI50 (CAKI-1): 3.39 µM | GI50 (HCT-116): 4.07 µM | GI50 (Leukemia cell lines): 2.24 µM | no. cell lines used for the assay/no inhibited by compound (Leukemia cell lines): 4/4 | GI50 (SK-MEL-5): 5.62 µM | GI50 (OVCAR-4): 4.9 µM | GI50 (A549/ATCC): 13.5 µM | GI50 (CCRF-CEM): 1.78 µM | GI50 (ACHN): 21.4 µM | GI50 (TK-10): 7.94 µM | GI50 (OVCAR-5): 10.2 µM | GI50 (A498): 2.82 µM | GI50 [1]: 4.89 µM | no. cell lines used for the assay/no inhibited by compound [1]: 2/2 | GI50 (Colon cancer cell lines): 6.05 µM | no. cell lines used for the assay/no inhibited by compound (Colon cancer cell lines): 4/6 | GI50 (NCI-H522): 6.03 µM | GI50 (SK-MEL-28): 4.57 µM | GI50 (RPMI-8226): 0.38 µM | GI50 (KM12): 5.13 µM | GI50 (SNB-75): 4.37 µM | GI50 (HCC-2998): 17.4 µM | GI50 (EKVX): 8.91 µM | GI50 (SW-620): 4.37 µM | GI50 (SN12C): 11.7 µM | GI50 (UACC-62): 4.27 µM | GI50 (Melanoma cell lines): 5.62 µM | no. cell lines used for the assay/no inhibited by compound (Melanoma cell lines): 6/8 | GI50 ([2]; five dose assay): 6.61 µM | average growth inhibition [2]: 50% | Annexin V staining, percent of dead cells (HCC4017 cells): did not show any reproducible significant changes | GI50 (DU-145): 7.41 µM | GI50 (SNB-19): 10 µM | GI50 (NCI-H23): 3.72 µM | GI50 (M14): 5.89 µM

O=C(NO)c1ccc(S(=O)(=O)N2CCN(c3nc4ccccc4s3)CC2)cc1 [Compound 9d, 4-(4-Benzothiazol-2-yl-piperazin-1-sulfonyl)-N -hydroxy-benzamid]
GI50 (SF-295): 1.86 µM | GI50 (U251): 2.75 µM | GI50 (HT29): 5.62 µM | GI50 (HL-60(TB)): 2.57 µM | GI50 (CAKI-1): 2.34 µM | GI50 (HCT-116): 1.7 µM | GI50 (Leukemia cell lines): 1.77 µM | no. cell lines used for the assay/no inhibited by compound (Leukemia cell lines): 5/5 | GI50 (SK-MEL-5): 3.98 µM | GI50 (OVCAR-4): 3.8 µM | GI50 (A549/ATCC): 3.63 µM | GI50 (CCRF-CEM): 1.82 µM | GI50 (SR): 1.12 µM | GI50 (ACHN): 4.57 µM | GI50 (TK-10): 3.63 µM | GI50 (OVCAR-5): 7.76 µM | GI50 (A498): 1.82 µM | GI50 [1]: 2.48 µM | no. cell lines used for the assay/no inhibited by compound [1]: 2/2 | GI50 (Colon cancer cell lines): 2.3 µM | no. cell lines used for the assay/no inhibited by compound (Colon cancer cell lines): 6/7 | GI50 (NCI-H522): 2.29 µM | GI50 (SK-MEL-28): 1.58 µM | GI50 (RPMI-8226): 1.38 µM | GI50 (KM12): 2.14 µM | GI50 (SNB-75): 1.74 µM | GI50 (HCC-2998): 2.14 µM | GI50 (EKVX): 4.37 µM | GI50 (SW-620): 1.66 µM | GI50 (SN12C): 10.5 µM | GI50 (UACC-62): 1.7 µM | GI50 (Melanoma cell lines): 2.66 µM | no. cell lines used for the assay/no inhibited by compound (Melanoma cell lines): 5/8 | GI50 ([2]; five dose assay): 3.16 µM | more potent overall by a factor, compared to 9c ([2]; MID, five dose assay): 2 | average growth inhibition [2]: 62% | GI50 (DU-145): 3.02 µM | GI50 (SNB-19): 5.37 µM | GI50 (NCI-H23): 1.55 µM | GI50 (M14): 1.62 µM
